Results: patent US5618665A, “Enzymatic fluorometric assay for adenylate cyclase” (Regents of the University of Minnesota, priority 1994, dated 1997)

Experiments:
[1] = system: glycogen phosphorylase a; test: Removal of AMP by the cleaning reactions (glycogen phosphorylase a activity, NADPH fluorescence); assay type: biochemical; details: 25° C.
Protocol: AMP was incubated for 60 min at 37° C. with 50 μl of either buffer (100 mM Tris-HCl, pH 8.0) or a cleaning reaction mixture containing 100 mM Tris-HCl, pH 8.0; 5 mM MgCl2. 2 mM CaCl2, 0.02 units/ml apyrase; 0.025 units/ml 5'-nucleotidase and 0.1 mg/ml adenosine deaminase.

[2] = system: adenylate cyclase; test: Adenylate cyclase activity of rabbit cardiac membranes by enzymatic fluorometric assay (ATP-ADP cycling), radioimmunoassay and Salomon's method; assay type: biochemical; details: isoproterenol 10^-7 and 10^-6 M; NaF 10^-2 M; GppNHp 10^-4 M; carbachol 10^-6 M; adenosine 10^-3 M; three methods
Protocol: Adenylate cyclase activities of six different rabbit cardiac membranes under basal and drug treated conditions were assessed using the fluorometric method of the present invention, radioimmunoassay and original [alpha-^32 P] ATP method developed by Salomon. The first part of the non-radioactive fluorescent technique for measuring adenylate cyclase activity is similar to the method described in Example 2 except that 3-isobutyl-1-methylxanthine (IBMX), rather than theophylline, was used to inhibit phosphodiesterase activity. Furthermore, a series of ATP-ADP enzyme-cycling reactions was used to amplify the cAMP signal, rather then the AMP stimulation of glycogen phosphorylase a utilized in previous examples. Use of the ATP-ADP enzymatic cycling amplification step can lengthen the assay duration, depending upon the desired assay sensitivity.
A volume of 1.0 μl of either H2 O, isoproterenol, NaF, guanylyl-5'-imidodiphosphate (GppNHp), carbachol, and adenosine was added to each of six reaction tubes on ice. Next, 25 μl of cyclase mix (100 mM Tris-acetate, pH 7.4; 4.2 mM KCl; 10 mM MgCl2; 20 mM phosphoenolpyruvate; 2 mM ATP; 20 μM GTP; 2 mM dithiothreitol; 0.04% bovine serum albumin; 0.2 mM 3-isobutyl-1-methylxanthine (IBMX); 100 μg/ml pyruvate kinase) was added to each reaction tube. The stored membrane was diluted with SET buffer in a concentration of 1.5 mg of protein/ml. Finally, 25 μl of membrane suspension, which contained 37.5 μg of protein, was added to each tube, and the reaction was initiated by placing the tubes in a water bath maintained at 37° C. After 30 minutes, the reaction was terminated by heating at 90° C. for 5 minutes. […] Then, 25 μl of cyclase mix and 25 μl of boiled membrane preparation were added to each tube. After 30 minutes, the reaction was terminated by heating at 90° C. for 5 minutes.
A volume of 5 μl of reaction of product from Part A was transferred to Pyrex® tubes. For external cAMP standard, a same volume of known amount of cAMP was also added to assay tubes. Newly synthesized cAMP was measured using the following enzymatic fluorometric assay.
1. A volume of 25 μl of "cleaning" reaction mix (100 mM Tris HCl, pH 8.0; 2 mM MgCl2; 2 units/ml apyrase; 2.5 units/ml 5'-nucleotidase; 50 μg/ml adenosine deaminase; 20 units/ml alkaline phosphatase) was added to each assay tube. The mixture was incubated at 37° C. for 30 minutes. Enzymes were then destroyed by heating for 10 minutes at 90° C.
2. A volume of 25 μl of a phosphodiesterase-containing reaction mix (100 mM Tris-HCl pH 8.0; 2 mM MgCl2; 0.01% bovine serum albumin; 60 μg/m; phosphodiesterase) was added to each assay tube from Step 1. After 60 minutes at 37° C., the assay tubes were heated at 90° C. for 5 minutes.
3. A volume of 25 μl of myokinase reaction mix (100 mM Tris-HCl, pH 8.0; 2 mM MgCl2; 225 mM KCl; 200 nM ATP; 8 mM phosphoenolpyruvate; 2 mM dithiothreitol; 0.01% bovine serum albumin; 24 μg/ml myokinase; 50 μg/ml pyruvate kinase) was added to the assay tubes from Step 2. The reactions were incubated at 37° C. for 2 hours.
4. […]
5. […] After 15 minutes at room temperature, the final concentration of NADPH was measured using a fluorometer (Optical Technology Devices, Inc., New York). The fluorometer was set such that a reading of 1 fluorometric unit was equivalent to 100 pmol of NADPH in 900 μl of buffer (50 mM Tris-HCl, pH 8.0). […]

[3] = system: adenylate cyclase; test: Effect of theophylline on basal and isoproterenol-stimulated adenylate cyclase activity; assay type: biochemical; details: for Isoproterenol Stimulated adenylate cyclase activity / Fold Increase, isoproterenol stimulated: isoproterenol 10^-6 M; for Isoproterenol Stimulated adenylate cyclase activity / Basal (no isoproterenol) adenylate cyclase activity: n = 5; for Fold Increase, isoproterenol stimulated / Fold Increase, basal (no isoproterenol): vs control
Source text: To investigate the effects of theophylline on basal adenylate cyclase activity, increasing concentrations of theophylline were studied (Table 2).

[4] = system: adenylate cyclase; test: Radioactive adenylate cyclase assay (modified Salomon, alpha-32P-ATP), rabbit ventricular membranes; assay type: biochemical, rabbit (New Zealand white); details: Iso 10^-6 M; GppNHp 10^-4 M; NaF 10^-2 M; n = 5
Protocol: (§1) Ventricular membrane preparations were prepared from five male New Zealand white rabbits (weight 2.4 kg; W.O.R.K., Philomith, Oreg.) sacrificed by cervical concussion and immediate incision of the heart as previously described. Briefly, hearts were placed in ice-cold SET buffer (0.25M sucrose, 0.1 mM EDTA, 5.0 mM Tris HCl, pH 7.4). Portions (1-2 g) from the ventricular apex were minced and then homogenized in ice-cold SET buffer (1/10, w/v). The homogenate was filtered through a Nitex filter (three layers) (Tetko, Los Angeles, Calif.) and then centrifuged for 20 min. at 1000×g. The pellet was resuspended and centrifuged three more times. The final pellet was resuspended in SET buffer (1.5 mg protein/ml) and stored at -70° C. until enzyme activity was measured.
A volume of 1.0 μl of either H2 O, NaF, guanylyl-5'-imidodiphosphate (GppNHp), isoproterenol, or isoproterenol+GppNHp were added to each of five reaction tubes and maintained at 0° C. […] Finally 25 μl of membrane suspension ([…]) were added to each tube and the reaction was initiated by placing the tubes in a water bath at 37° C. After 30 minutes, the reaction was terminated by the addition of 300 μl of a stopping solution which contained 0.34 HCl and ^3 H-cAMP, 10,000-20,000 cpm.
To generate the graph depicted in FIG. 2, 250 μl portions of reaction mixture A and membrane were used and 50 μl samples were removed from the 37° C. bath every 10 minutes, and stopped with 300 μl stopping solution. The assay tubes were heated at 95° C. for 5 minutes. ^32 P-cAMP was isolated using Dowex-alumina chromatography. Recovery, as assessed by ^3 H-cAMP, was 80-95%. All assays were conducted in triplicate. The time course of adenylate cyclase activity (n=5 different rabbit ventricular membrane preparations) is depicted in FIG. 1. Basal AC and agonist stimulated (0.1 mM GppNHp, 0.1 mM) AC are compared. The activity shown is (isoproterenol+GppNHp-stimulated AC activity) minus (GppNHp-stimulated activity). […]

[5] = system: adenylate cyclase; test: Fluorometric (non-radioactive) adenylate cyclase assay, rabbit ventricular membranes; assay type: biochemical, rabbit (New Zealand white); details: Iso 10^-6 M; GppNHp 10^-4 M; NaF 10^-2 M; n = 5
Protocol: as §1
A volume of 1.0 μl of either H2 O, NaF, guanylyl -5'-imidodiphosphate (GppNHp), isoproterenol, or isoproterenol+GppNHp was added to each of five reaction tubes and maintained at 0° C. Next, 25 μl of reaction mixture B (tris Acetate 100 mM, pH 7.4; KCl 20 mM; MgCl2 10.0 mM; phosphoenolpyruvate 20 mM; ATP 2.0 mM; GTP 0.02 mM; dithiothreitol 2.0 mM; bovine serum albumin 0.04%; theophylline 0.2 mM; pyruvate kinase 1.0 mg/ml) were added to each reaction tube. Finally, 25 μl of membrane suspension (40 to 45 μg protein) were added to each tube and the reaction was initiated by placing the tubes in a water bath at 37° C. After 30 minutes at 37° C., the reaction was stopped by the addition of 50 μl of 50 mM NaOH. The reaction mixture was heated for 5 minutes at 95° C.
1. A volume of 20-40 μl of reaction product from Part A was added to 100 μl of cleaning reaction mix (Tris-HCl 50 mM, pH 8.0; MgCl2 5 mM; CaCl2, 2 mM; 5'-nucleotidase 0.025 units/ml; apyrase 0.02 units/ml; adenosine deaminase 0.1 mg/ml). After 30 minutes at 37° C., the reaction was terminated by heating it at 95° C. for 5 minutes.
2. […] After 60 minutes at 37° C., 600 μl of 2-amino-2-methyl-1-propanol (AMP2) 50 mM, pH 9.9 was added to the reaction mix and the final concentration of NADPH was measured fluorometrically.
Although the basal activity is nearly 3 times higher in the nonradioactive method, the "fold" stimulation is similar for both receptor-mediated agonists (isoproterenol±GppNHp) as well by NaF, which directly stimulates adenylate cyclase.
The non-radioactive assay of Example 2 is at least 5 times more sensitive than the modified Salomon radioactive assay of Example 1. In Table 3, 5 μl of membrane preparation were used to measure adenylate cyclase activity in the non-radioactivity assay compared to 25 μl with the radioactive preparations. In a separate experiment, the volume of membrane suspension was reduced from 25 μl to 5 μl. By proportionally reducing the assay volume size, no difference in basal (58.4±3.9), isoproterenol (10^-6 M) (128±7.6) or NaF (10^-2 M) (331.9±42.8) stimulated activity was observed when results were compared to larger assay volumes present. EXAMPLE 5.

**Q.** For “adenosine 2'- and 3'-monophosphate [AMP]”, which “glycogen phosphorylase a activity” value ([1]; in the presence of the cleaning reaction mixture) is on record?
**A.** remains similar to the control buffer values

**Q.** And the “glycogen phosphorylase a activity” value ([1]; without the cleaning step)?
**A.** markedly stimulated

**Q.** With `Nc1ncnc2c1ncn2[C@@H]1O[C@H](CO)[C@@H](O)[C@H]1O` [adenosine] as the compound, how does the “effect on cAMP production” value [2] read?
**A.** inhibited

**Q.** With `Cn1c(=O)c2[nH]cnc2n(C)c1=O` [theophylline] as the compound, how does the “Isoproterenol Stimulated adenylate cyclase activity” value ([3]; theophylline 10 μM) read?
**A.** 85.58 ± 5.56 pmol/mg/min

**Q.** And the “Fold Increase, isoproterenol stimulated” value ([3]; theophylline 10 μM)?
**A.** 1.65 fold

**Q.** What about the “Basal (no isoproterenol) adenylate cyclase activity” value ([3]; theophylline 10 μM) of the same compound?
**A.** 44.72 ± 4.61 pmol/mg/min

**Q.** And the “Fold Increase, basal (no isoproterenol)” value ([3]; theophylline 10 μM)?
**A.** 1.46 fold

**Q.** And the “Isoproterenol Stimulated adenylate cyclase activity” value ([3]; theophylline 50 μM)?
**A.** 93.02 ± 3.55 pmol/mg/min

**Q.** And the “Fold Increase, isoproterenol stimulated” value ([3]; theophylline 50 μM)?
**A.** 1.80 fold

**Q.** What about the “Basal (no isoproterenol) adenylate cyclase activity” value ([3]; theophylline 50 μM) of the same compound?
**A.** 44.63 ± 5.93 pmol/mg/min

**Q.** What about the “Fold Increase, basal (no isoproterenol)” value ([3]; theophylline 50 μM) of the same compound?
**A.** 1.46 fold

**Q.** And the “Isoproterenol Stimulated adenylate cyclase activity” value ([3]; theophylline 100 μM)?
**A.** 104.21 ± 3.50 pmol/mg/min

**Q.** What about the “Fold Increase, isoproterenol stimulated” value ([3]; theophylline 100 μM) of the same compound?
**A.** 2.01 fold

**Q.** And the “Basal (no isoproterenol) adenylate cyclase activity” value ([3]; theophylline 100 μM)?
**A.** 59.94 ± 3.63 pmol/mg/min

**Q.** What about the “Fold Increase, basal (no isoproterenol)” value ([3]; theophylline 100 μM) of the same compound?
**A.** 1.91 fold

**Q.** And the “Isoproterenol Stimulated adenylate cyclase activity” value ([3]; theophylline 500 μM)?
**A.** 102.67 ± 2.86 pmol/mg/min

**Q.** And the “Fold Increase, isoproterenol stimulated” value ([3]; theophylline 500 μM)?
**A.** 1.98 fold

**Q.** And the “Basal (no isoproterenol) adenylate cyclase activity” value ([3]; theophylline 500 μM)?
**A.** 53.82 ± 4.37 pmol/mg/min

**Q.** And the “Fold Increase, basal (no isoproterenol)” value ([3]; theophylline 500 μM)?
**A.** 1.75 fold

**Q.** And the “basal activity is increased” value ([3]; theophylline 100-500 μM)?
**A.** approximately 100%

**Q.** What about the “increase in basal activity” value ([3]; theophylline > 100 μM) of the same compound?
**A.** no significant increase in basal activity was observed

**Q.** With `Nc1nc2c(ncn2[C@@H]2O[C@H](COP(=O)(O)OP(=O)(O)NP(=O)(O)O)[C@@H](O)[C@H]2O)c(=O)[nH]1` [GppNHp, guanylyl-5'-imidodiphosphate] as the compound, how does the “Agonist-stimulated adenylate cyclase activity, radioactive assay” value [4] read?
**A.** 64.9 ± 3.3 pmoles of cAMP/mg/min

**Q.** And the “Agonist-stimulated adenylate cyclase activity, fluorescent assay” value [5]?
**A.** 185.3 ± 13.7 pmoles of cAMP/mg/min

**Q.** What about the “effect on cAMP production” value [2] of the same compound?
**A.** increased production

**Q.** For `C[N+](C)(C)CCOC(N)=O` [carbachol], which “effect on cAMP production” value [2] is on record?
**A.** inhibited
